Laboratory results from the supplement of paper PMC10307832.

Experiments:
Bicalutamide + Dasatinib = compound: CC(O)(CS(=O)(=O)c1ccc(F)cc1)C(=O)Nc1ccc(C#N)c(C(F)(F)F)c1 [Bicalutamide] + Cc1nc(Nc2ncc(C(=O)Nc3c(C)cccc3Cl)s2)cc(N2CCN(CCO)CC2)n1 [Dasatinib] (partner 0.075 µM); experiment: relative viability (nuclei count vs DMSO), 5 days (fraction); higher = more cells survive
Summary of the method: (§1)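 Five library-drug doses in √10 steps were combined with a fixed anchor-drug dose, or a single drug was given alone, by pin tool to lung cancer cell lines in 1536-well plates the day after seeding. Nuclei were stained and counted after 5 days. Relative viability is the nuclei count in treated wells over that in vehicle wells, taken as the median of duplicate plates.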

[1] = compound: C(C(=O)C(=O)O)Br [Bromopyruvate] + CC(=O)Nc1cccc(-n2c(=O)n(C3CC3)c(=O)c3c(Nc4ccc(I)cc4F)n(C)c(=O)c(C)c32)c1 [Trametinib] (partner 0.02 µM); experiment: as above
Summary of the method: as §1

Cell Line	relative viability (Bicalutamide + Dasatinib; first compound 0.08 µM)	relative viability (Bicalutamide + Dasatinib; first compound 0.253 µM)	relative viability (Bicalutamide + Dasatinib; first compound 0.8 µM)	relative viability (Bicalutamide + Dasatinib; first compound 2.53 µM)	relative viability ([1]; first compound 1 µM)	relative viability ([1]; first compound 3.162 µM)	relative viability ([1]; first compound 10 µM)	relative viability ([1]; first compound 31.62 µM)	relative viability ([1]; first compound 100 µM)
NCI-H2347	0.318	0.307	0.299	0.308	0.224	0.28	0.335	0.248	0.274
HCC-366	0.556	0.481	0.749	0.5	0.361	0.322	0.41	0.359	0.322
EMC-BAC-2	0.347	0.287	0.33	0.298	0.753	1.01	0.985	–	0.959
NCI-H3122	0.922	0.791	0.938	0.889	0.223	0.237	0.24	0.204	0.129
NCI-H358	0.154	0.14	0.16	0.145	0.145	0.132	0.139	0.128	0.133
NCI-H1944	0.233	0.203	0.216	0.208	0.428	0.376	0.409	0.435	0.398
NCI-H2342	0.324	0.276	0.299	0.306	0.757	0.912	0.779	0.696	0.736
EPLC-272H	0.375	0.336	0.454	0.321	0.266	0.278	0.341	0.302	0.289
NCI-H1915	0.317	0.29	0.301	0.252	0.308	0.293	0.296	0.342	0.349
NCI-H647	0.187	0.173	0.208	0.139	0.425	0.472	0.665	0.473	0.488
NCI-H441	0.646	0.63	0.664	0.534	0.47	0.529	0.506	0.526	0.458
NCI-H23	0.789	0.67	1.07	0.802	0.371	0.375	0.346	0.354	0.336
NCI-H522	0.815	0.722	0.901	0.87	0.697	0.671	0.778	0.92	0.757
NCI-H650	0.483	0.42	0.456	0.356	0.971	1.02	0.928	0.955	0.991
SK-MES-1	0.343	0.358	0.427	0.301	0.631	0.547	0.511	0.578	0.574
NCI-H2170	0.532	0.497	0.584	0.563	0.918	0.923	0.99	0.902	0.925
NCI-H2087	0.851	0.87	1.05	0.816	0.224	0.189	0.156	0.175	0.185
NCI-H838	0.319	0.303	0.392	0.272	0.521	0.529	0.68	0.539	0.516

Cell Line	relative viability (Bicalutamide + Dasatinib; first compound 0.08 µM)	relative viability (Bicalutamide + Dasatinib; first compound 0.253 µM)	relative viability (Bicalutamide + Dasatinib; first compound 0.8 µM)	relative viability (Bicalutamide + Dasatinib; first compound 2.53 µM)	relative viability ([1]; first compound 1 µM)	relative viability ([1]; first compound 3.162 µM)	relative viability ([1]; first compound 10 µM)	relative viability ([1]; first compound 31.62 µM)	relative viability ([1]; first compound 100 µM)
NCI-H460	0.498	0.44	0.646	0.483	0.164	0.101	0.132	0.18	0.235
LOU-NH91	0.635	0.43	0.605	0.568	0.79	0.761	0.799	0.826	0.866
NCI-H322M	0.236	0.248	0.264	0.319	0.525	0.537	0.517	0.536	0.5
NCI-H520	0.192	0.195	0.185	0.137	0.653	0.716	0.755	0.637	0.646
NCI-H661	0.95	0.844	1.03	0.722	0.546	0.588	0.579	0.523	0.603
NCI-H727	0.376	–	0.383	0.653	0.42	0.376	0.461	0.428	0.36
NCI-H1793	0.369	0.349	0.486	0.377	0.469	0.496	0.503	0.485	0.49
NCI-H1734	0.454	0.4	0.561	0.367	0.743	0.765	0.64	0.717	0.66
LXF-289	0.214	0.25	0.227	0.194	0.671	0.653	0.627	0.693	0.67
H3255	0.491	0.39	–	0.359	0.55	0.547	0.647	0.574	0.718
201T	0.575	0.566	0.581	0.57	0.709	0.719	0.709	0.725	0.755
NCI-H2228	0.476	0.479	0.522	0.55	0.472	0.505	0.548	0.514	0.538
HOP-62	0.663	0.646	0.815	0.516	0.405	0.343	0.372	0.408	0.485
CAL-12T	0.492	0.325	0.445	0.256	0.302	0.285	0.393	0.347	0.307
NCI-H596	0.576	0.599	0.798	0.598	0.743	0.84	0.789	0.74	0.845
NCI-H1755	0.397	0.382	0.446	0.351	0.827	0.831	0.722	0.768	0.796
NCI-H2085	0.227	0.261	0.267	0.228	0.559	0.685	0.516	0.563	0.341
NCI-H2023	0.599	0.48	0.758	0.488	0.55	0.483	0.517	0.562	0.482
